Experimental data taken from US10221190B2, “Biguanide compounds and use thereof” (IMMUNOMET THERAPEUTICS INC., priority 2013, dated 2019).

Columns and labels:
[1] = system: lung cancer cell line A549; experiment: Inhibitory activity on Oxygen Consumption Rate (OCR); format: cell-based; details: A549, 3 hrs, 10 uM compound; phenformin set to 100%, untreated control set to 0%
Procedure: The cellular metabolic activity of the compounds on Oxygen Consumption Rate (OCR) was evaluated, because the biguanide drugs have anticancer activity by inhibiting the oxidative phosphorylation of cancer cell.
A549 cells were inoculated at 5×10^3 cells in RPMI1640 media on XF96 cell culture plate and cultured for 24 h (temp; 37° C., 5% CO2) to make the cell adhere to the plate.
After 24 hr, A549 cells were treated by 10 μM of the compounds or phenformin, and were washed with XF analysis media using Prep station to remove the original media. A549 cells were retreated by compounds or phenformin and incubated for 1 hr (temp; 37° C., Non-CO2) in Prep station. While incubation in Prep station, sensor cartridge was calibrated for 1 hr. Then, the calibrated sensor cartridge was inserted to the cell plate to analyze OCR.
When OCR of phenformin as a reference drug was set to 100% and OCR of untreated control was set to 0%, the OCR of tested compounds was calculated by converting the measured OCR to be the relative percentage value (%).

[2] = system: HCT116 cell; experiment: Inhibitory activity against cancer cells (MTT cell viability), HCT116; format: cell-based, human; details: Homo sapiens, HCT 116, 48 hr incubation
Procedure: (§1) The inhibitory activities of biguanide derivatives against cancer cells were evaluated in the cell line SK-MEL-28 derived from human Melanoma cell, Miapaka-2 cell line derived from human pancreatic cancer cell and HCT116 cell line derived from human colorectal cancer cell by measuring the concentration that inhibits 50% of the growth of the cell lines (the half maximal inhibitory concentration, IC50).
(§2) Firstly, SK-MEL-28 cells were grown to be density of 5,000 cells/well in RPMI-1640 media supplemented with 10% (v/v) bovine calf serum, on 96-well plates for 16 hr. To measure the IC50 of each compound, the cells were incubated for 48 hr with the 100 mM PBS stock compounds at an amount of 10 mM, 1 mM, 200 uM, 40 uM, 8 uM, 1.6 uM, 0.32 uM or 0.064 uM; 50 mM PBS and EtOH stock compounds at an amount of 1 mM, 200 uM, 40 uM, 8 uM, 1.6 uM, 0.32 uM and 0.064 uM; and 50 mM DMSO stock compounds at an amount of 100 uM, 25 uM, 6.25 uM, 1.56 uM, 0.39 uM, 0.10 uM and 0.02 uM, respectively. To test the viable cells after incubation with each compound, the cell cultures were incubated additionally for 2 hr in the presence of MTT. The produced formazan crystals were dissolved with dimethyl sulfoxide and then measured by detecting the absorbance at 560 nm.
(§3) After the 48 hr incubation, the viable cells were counted on the well plates treated with the compounds of the Examples relative to the count of the viable cells on the non-treated plates, and then was represented as the cell viability (%). By using the cell viability (%) result, the cell viability curve was plotted, and IC50 was calculated from the curve to evaluate the inhibitory activity against cancer cells.
(§4) The inhibitory activities of biguanide derivatives against cancer cells of Miapaca-2 cell and HCT116 cell were evaluated according to the substantially same method as described in SK-MEL-28 cell, except that DMEM media supplemented with 10% (v/v) bovine calf serum was used instead of RPMI-1640 media supplemented with 10% (v/v) bovine calf serum for SK-MEL-28 cell.

[3] = system: Miapaca-2 cell; experiment: Inhibitory activity against cancer cells (MTT cell viability), Miapaca-2; format: cell-based; details: Homo sapiens, MIA PaCa-2, Miapaca-2, 48 hr incubation
Procedure: as §1, §2, §3, §4

[4] = system: SK-MEL-28 cells; experiment: Inhibitory activity against cancer cells (MTT cell viability), SK-MEL-28; format: cell-based; details: Homo sapiens, SK-MEL-28, 48 hr incubation
Procedure: as §1, §2, §3

IC50 [2] [µM] | IC50 [3] [µM] | IC50 [4] [µM] | SMILES | OCR inhibition relative to phenformin (%) [1] [%]
> 100 | 58.6 | 134 | Cl.N=C(NC(=N)N1CCC(CO)C1)Nc1ccc(OC(F)(F)F)cc1 (stereo not drawn) [Example 20, N1-3-hydroxy methyl pyrrolidine-N5-(4-trifluoromethoxy)phenyl biguanide] | 15
35.2 |  |  | CN1CCN(C(=N)NC(=N)Nc2ccc(F)c(OC(F)(F)F)c2)CC1.Cl [Example 40, N1-4-methyl piperazine-N5-(4-fluoro-3-trifluoromethoxy)phenyl biguanide] | 42.9
39.8 |  |  | C[C@H]1CCCN1C(=N)NC(=N)Nc1ccc(OC(F)(F)F)cc1.Cl [Example 16] | 13
> 100 | 47.9 | 182 | Cl.N=C(NC(=N)N1CCC(O)CC1)Nc1ccc(OC(F)(F)F)cc1 [Example 18, N1-4-hydroxy piperidine-N5-(4-trifluoromethoxy)phenyl biguanide] | 57
 | 106 |  | Cl.N=C(NC(=N)N1CCC(O)CC1)Nc1cccc(Oc2ccccc2)c1 [Example 22, N1-4-hydroxy piperidine-N5-(3-phenoxy)phenyl biguanide] | 74
28.6 |  |  | CC(C)c1ccc(NC(=N)NC(=N)N2CCCC2)cc1.Cl [Example 6, N1-pyrrolidine-N5-(4-isopropyl)phenyl biguanide] | 44
182 | > 100 | > 100 | CS(=O)(=O)C1CCN(C(=N)NC(=N)Nc2ccc(OC(F)(F)F)cc2)CC1 [Example 53, N1-4-(methylsulfonyl)piperidine-N5-(4-trifluoromethoxy)phenyl biguanide] | 
59.5 |  |  | Cl.N=C(NC(=N)N1CCc2ccccc2C1)N1CCCC1 [Example 89, N-(imino(pyrrolidin-1-yl)methyl)-3,4-dihydroisoquinoline-2(1H)-carboximidamide] | 44
12.5 | 119 | 266 | [H]/N=C(/N)N/C(=N/[H])NCCc1ccccc1 [Phenformin, phenformin, reference compound] | 
> 100 | 2340 | > 1000 | N=C(NC(=N)N1CCCC1)Nc1ccc(C(N)=O)cc1 [Example 23, N1-pyrrolidine-N5-4-benzamide biguanide] | 
